Reference: PubChem BioAssay AID504630 (Southern Research Specialized Biocontainment Screening …, 2011)

System: human PBMC cytotoxicity, % cell control
Assay: cytotoxicity in human PBMCs, dose response, cytotoxicity control for HIV-1 antiviral project, cell-based, human PBMC, set 3 (AID 504630)

Cc1c2c(=O)n(-c3nc4ccccc4s3)nc-2cc(O)n1Cc1ccccc1
TC50: 13.2 µM
